Structures can show the parent of a compound that is named as a salt.
Columns and labels:
Male Sprague-Dawley rats = assay: Stereotypy inhibition test (apomorphine, rats); assay type: in vivo; details: Rattus norvegicus, ip; intraperitoneal; apomorphine 1.5 mg/kg subcutaneously after 30 min; scored 40-120 min
Method: Stereotypy inhibition test: Male Sprague-Dawley rats, weighing 200-300 g were used. The animals were weighed and then placed in individual transparent boxes. At time 0 the compounds to be tested were administered intraperitoneally. 0.25% agar was used as vehicle. […] At 40, 50, 60, 90 and 120 min, stereotypy was scored from (-) to (+++) according to the following criteria: (-) absence of stereotypy or any abnormal movement; (+) presence of slight stereotyped movements of the head and intermittent sniffing; (++) intense movements of the head, mild licking interspersed with sniffing; and (+++) intense licking and/or gnawing. Results are expressed as ED50 in mg/kg for a better quantification.

σ receptors [1] = details: B. L. Largent et al, Eur. J. Pharmacol., 155, 345-7, 1988; cited from earlier work
[2] = in vivo
[3] = Irwin test (behavioural and neurological undesirable effects); details: observed at first dose causing undesirable effects
σ receptors [4] = biological target: T1, σ receptors (Cavia porcellus, UniProt Q60492); assay: Specific binding to σ receptors, (+)[^3 H]3-PPP displacement; set-up: species or system guinea-pig; details: for IC50: guinea-pig total brain membrane, 2 nM (+)[^3 H]3-PPP, 90 min, 25° C., pH 8.5
T1 construct: membrane corresponding to 40 mg of guinea-pig total brain; from tissue; host or cells: guinea-pig total brain membranes
Method: (§1) Thus, total binding of ligand to membranes was attained. Non-specific binding was then determined by adding a micromolar concentration of unlabelled 3-PPP.

D2 receptors = D2 receptors (Rattus norvegicus, UniProt P61169); assay: Specific binding to D2 receptors, [^3 H]spiperone displacement
σ receptors [5] = assay: Specific binding to σ receptors, (+)[^3 H]3-PPP displacement; set-up: species or system guinea-pig
Method: as §1

D2 receptors, sequence (P61169 whole entry): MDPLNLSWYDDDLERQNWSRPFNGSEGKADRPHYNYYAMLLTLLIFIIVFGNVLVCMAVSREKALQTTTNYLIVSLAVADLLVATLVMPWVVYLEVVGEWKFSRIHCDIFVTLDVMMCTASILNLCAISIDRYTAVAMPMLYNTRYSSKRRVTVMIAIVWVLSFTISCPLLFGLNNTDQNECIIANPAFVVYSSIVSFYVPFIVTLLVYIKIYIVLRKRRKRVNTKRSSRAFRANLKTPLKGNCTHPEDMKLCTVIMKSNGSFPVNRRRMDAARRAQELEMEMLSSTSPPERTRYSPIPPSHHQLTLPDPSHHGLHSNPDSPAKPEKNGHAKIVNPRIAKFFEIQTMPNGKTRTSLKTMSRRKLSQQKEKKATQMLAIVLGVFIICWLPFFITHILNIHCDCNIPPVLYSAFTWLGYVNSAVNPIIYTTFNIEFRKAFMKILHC
T1 sequence (Q60492 whole entry): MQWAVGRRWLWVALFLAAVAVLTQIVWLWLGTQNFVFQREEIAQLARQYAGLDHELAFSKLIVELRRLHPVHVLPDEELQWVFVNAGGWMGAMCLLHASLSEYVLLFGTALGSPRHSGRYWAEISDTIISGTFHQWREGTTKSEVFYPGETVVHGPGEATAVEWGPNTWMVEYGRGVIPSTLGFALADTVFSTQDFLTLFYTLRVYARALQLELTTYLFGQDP

| Compound | IC50 (σ receptors [4]) | IC50 (D2 receptors) | also measured |
| --- | --- | --- | --- |
| O=C(CCCN1CCC(O)(c2ccc(Cl)cc2)CC1)c1ccc(F)cc1 [Haloperidol] |  |  | ED50 (Male Sprague-Dawley rats): 0.4 mg/kg; Receptor action (literature, in words) (σ receptors [1]): acts on both σ and D2 receptors; First dose causing behavioural and neurological undesirable effects [2]: 10 mg/kg; Side effects [3]: Hypothermia, Catalepsy. |
| CN(CCCC(c1ccc(F)cc1)c1ccc(F)cc1)CCN(C)Cc1ccc(F)cc1 [Example 9, N-(4,4-bis(p-fluorophnyl)butyl)-N,N'-dimethyl-N'-(p-fluorobenzyl)-1,2-ethanediamine dihydrochloride] | 0.083 µM | 2.35 µM |  |
| CN(CCCC(O)c1ccc(F)cc1)CCN(C)Cc1ccc(F)cc1 (centres unmarked) [Example 8, 1-(p-fluorophenyl)-4-[N-(2-(N'-(p-fluorobenzyl)-N'-methylamino)ethyl)-N-methanlamino]-1-butanol dihydrochloride] | 0.00279 µM | 7.81 µM |  |
| CN(CCCC(O)c1ccc(F)cc1)CCN(C)Cc1ccccc1 (centres unmarked) [Example 6, 4-[N-(2-(N'-benzyl, N'-methylamino)ethyl) -N-methylamino]-1-(p-fluorophenyl)-1-butanol dihydrochloride] | 0.029 µM | 81.8 µM |  |

Further compounds by falling IC50 (σ receptors [4]), results first:

| IC50 (σ receptors [4]) | IC50 (D2 receptors) | Compound | also measured |
| --- | --- | --- | --- |
| 0.0146 µM | 1.5 µM | CN(CCCC(=O)c1ccc(F)cc1)CCN(C)c1ncccn1 [Example 12, 1-(p-fluorophenyl)-4-[N-[2-(N'-(2-pyrimidinyl)-N'-methyl-amino)ethyl]-N-methylamino]-1-butanone disulphate] | Relative selectivity (σ receptors [5]; D2 /σ ratio relative to Haloperidol): 21.5; Selectivity D2 /σ (σ receptors [5]; ratio of IC50 D2 (rat striatum) to IC50 σ (guinea-pig brain)): 103 |
| 0.00201 µM | 0.41 µM | CN(CCCC(=O)c1ccc(F)cc1)CCN(C)Cc1ccccc1 [Example 5, 4-[N-(2-(N'-benzyl,N'-methylamino)ethyl)-N-methylamino]-1-(p-fluorophenyl)-1-butanone dihydrochloride] |  |
| 0.00052 µM | 0.678 µM | CN(CCCC(=O)c1ccc(F)cc1)CCN(C)Cc1ccc(F)cc1 [Example 7, 1-(p-fluorophenyl)-4-[N-(2-(N'-(p-fluorobenzyl)-N'-methylamino)ethyl)-N-methylamino]-1-butanone dihydrochloride] | Binding to σ receptors (in words) (σ receptors [4]): more potent than Haloperidol; Activity on D2 receptors (in words) (D2 receptors): poorly active on D2 receptors |
